Assay results: US5510261A, “Method of controlling the degradation of glycoprotein oligosaccharides produced by cultured Chinese hamster ovary cells” (The Board of Trustees of the Leland Stanford Juniot …, priority 1995, dated 1996)

System: neuraminidase present in CHO cell supernatant
Test: Inhibition of CHO neuraminidase activity, 4MU-NANA artificial substrate assay
Type: biochemical, Chinese hamster
Description: The artificial substrate 2'-(4-methylumbelliferyl)-α-D-N-acetylneuraminic acid (4MU-NANA) was used to assay for neuraminidase activity (modified from Potier et al., Anal. Biochem., 1979, 94, 287). The standard assay for lysate neuraminidase activity contained 0.1M sodium acetate (pH 3-6) or potassium phosphate (pH 6-8) buffer (10 μl of 1 M stock), 1 mM 4MU-NANA (25 μl from a 4 mM aliquot), and the lysate of 0.25 million cells ([…]) in a total volume of 100 μl. Supernatant samples were assayed identically, with supernatant replacing the added cell lysate. The 100 μl samples in plastic 1.5 ml tubes were placed in a 37° C. water bath with a shaker for 30 minutes (sometimes 60 minutes), and the reaction was stopped with 0.9 ml of 0.2M glycine (pH 10.4). […] An HP 1090 Series II HPLC coupled to an HP 1046A flow through fluorescence detector (Hewlett-Packard) was used for automated sample injection and analysis (no column). […] The fluorescence was integrated vs. time and compared to standard 4-methylumbelliferyl dilutions. […]
Aliquots of previously frozen and disrupted cells were thawed to 37° C. and assayed for neuraminidase activity as in the standard assay except the 4MU-NANA concentration varied at 0.1, 0.2, 0.4, 1 and 2 mM (pH 4.5, 5.5, 6.5 and 7.5). […] Kinetic parameters were determined by fitting an integrated form of the Michaelis-Menton equation: […]

Row | Structure (SMILES) | inhibition of the neuraminidase present in CHO cell supernatant
1 | CC(=O)N[C@H]1[C@H]([C@H](O)[C@H](O)CO)OC(C(=O)O)=C[C@@H]1O [2,3-D, 2,3-dehydro-2-deoxy-N-acetylneuraminic acid] | shown to inhibit
2 | CC(=O)N[C@H]1[C@H]([C@H](O)[C@H](O)CO)OC(O)(C(=O)O)C[C@@H]1O (some centres unmarked) [NANA, N-acetylneuraminicacid] | shown to inhibit
